Format in all cases: functional
Experiment [1] deals with Klebsiella pneumoniae. As to the kind of experiment: Antimicrobial activity against Klebsiella pneumoniae DA after 2 days. The settings on record: 48 h.
The test system of experiment [2] is Escherichia coli. As to the kind of experiment: Antimicrobial activity against Escherichia coli NIHJ JC-2 after 2 days. The following applies: 48 h.
The subject of experiment [3] is Candida albicans. The experiment is described as follows: Antimicrobial activity against Candida albicans TA.
In experiment [4] the test system is Escherichia coli. As to the kind of experiment: Antimicrobial activity against Escherichia coli 0-111 after 2 days. The settings on record: 48 h.

≈ marks a conversion by molar mass, not a printed value.

The term MIC denotes the lowest concentration that inhibits growth of the organism. Low values mean greater potency, high ones weaker potency. Take `CN1[C@@H]([C@@H]2SSC[C@@H]2O)CC[C@@H]1[C@@H]1SSC[C@@H]1O` [GERRARDINE]: the MIC came out at 100 µg/mL (≈ 307 µM) in experiment [1], 100 µg/mL (≈ 307 µM) in experiment [2], 50 µg/mL (≈ 154 µM) in experiment [3] and 100 µg/mL (≈ 307 µM) in experiment [4].
